Experimental data as given in the kinase profiling compilation of Christmann-Franck et al. (2016).

Key:
Conditions in all cases: compound 10.0 µM
AKT2 (human) = AKT2 (human) (UniProt P31751)
CAMKK2 (human) = CAMKK2 (human) (UniProt Q96RR4)
CDK5 CDK5R1 p35 (human) = CDK5 CDK5R1 p35 (human) (UniProt Q00535+Q15078)
CDK9 CCNT1 (human) = CDK9 CCNT1 (human) (UniProt O60563+P50750)
EGFR (human) = EGFR (human) (UniProt P00533)
EPHA3 (human) = EPHA3 (human) (UniProt P29320)
EPHA6 (human) = EPHA6 (human) (UniProt Q9UF33)
FLT1 (human) = FLT1 (human) (UniProt P17948)
FLT3 (human) = FLT3 (human) (UniProt P36888)
FLT4 (human) = FLT4 (human) (UniProt P35916)
GSG2 (human) = GSG2 (human) (UniProt Q8TF76)
ITK (human) = ITK (human) (UniProt Q08881)
JAK3 JH1 JH2 (human) = JAK3 JH1 JH2 (human) (UniProt P52333)
KDR (human) = KDR (human) (UniProt P35968)
LTK (human) = LTK (human) (UniProt P29376)
MAP3K9 (human) = MAP3K9 (human) (UniProt P80192)
MAP4K5 (human) = MAP4K5 (human) (UniProt Q9Y4K4)
MAPK10 (human) = MAPK10 (human) (UniProt P53779)
MAPK11 (human) = MAPK11 (human) (UniProt Q15759)
MAPKAPK3 (human) = MAPKAPK3 (human) (UniProt Q16644)
MET (human) = MET (human) (UniProt P08581)
MINK1 (human) = MINK1 (human) (UniProt Q8N4C8)
MKNK2 (human) = MKNK2 (human) (UniProt Q9HBH9)
MST4 (human) = MST4 (human) (UniProt Q9P289)
NEK4 (human) = NEK4 (human) (UniProt P51957)
NTRK1 (human) = NTRK1 (human) (UniProt P04629)
PAK3 (human) = PAK3 (human) (UniProt O75914)
PAK6 (human) = PAK6 (human) (UniProt Q9NQU5)
PBK (human) = PBK (human) (UniProt Q96KB5)
PDGFRA (human) = PDGFRA (human) (UniProt P16234)
PHKG1 (human) = PHKG1 (human) (UniProt Q16816)
PRKCD (human) = PRKCD (human) (UniProt Q05655)
PRKCZ (human) = PRKCZ (human) (UniProt Q05513)
PRKD2 (human) = PRKD2 (human) (UniProt Q9BZL6)
PRKG2 (human) = PRKG2 (human) (UniProt Q13237)
ROS1 (human) = ROS1 (human) (UniProt P08922)
RPS6KA2 KD1 KD2 (human) = RPS6KA2 KD1 KD2 (human) (UniProt Q15349)
SRC (human) = SRC (human) (UniProt P12931)
STK25 (human) = STK25 (human) (UniProt O00506)
STK39 (human) = STK39 (human) (UniProt Q9UEW8)
TAOK3 (human) = TAOK3 (human) (UniProt Q9H2K8)
TSSK2 (human) = TSSK2 (human) (UniProt Q96PF2)
TXK (human) = TXK (human) (UniProt P42681)
TYK2 JH1 JH2 (human) = TYK2 JH1 JH2 (human) (UniProt P29597)

AKT2 (human), sequence (P31751 whole entry, looked up): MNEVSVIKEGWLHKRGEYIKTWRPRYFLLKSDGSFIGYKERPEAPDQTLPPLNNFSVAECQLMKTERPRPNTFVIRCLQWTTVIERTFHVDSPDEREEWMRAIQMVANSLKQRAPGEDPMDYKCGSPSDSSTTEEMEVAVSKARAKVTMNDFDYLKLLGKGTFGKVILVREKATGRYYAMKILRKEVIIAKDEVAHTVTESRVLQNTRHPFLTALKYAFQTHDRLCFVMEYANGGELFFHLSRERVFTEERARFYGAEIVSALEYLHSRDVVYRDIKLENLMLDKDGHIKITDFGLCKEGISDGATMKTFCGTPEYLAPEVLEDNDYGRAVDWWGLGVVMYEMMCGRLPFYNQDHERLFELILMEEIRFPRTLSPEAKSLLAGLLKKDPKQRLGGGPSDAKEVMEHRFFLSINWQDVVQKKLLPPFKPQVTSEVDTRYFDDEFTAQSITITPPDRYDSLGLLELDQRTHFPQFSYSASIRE
MAPKAPK3 (human), sequence (Q16644 whole entry, looked up): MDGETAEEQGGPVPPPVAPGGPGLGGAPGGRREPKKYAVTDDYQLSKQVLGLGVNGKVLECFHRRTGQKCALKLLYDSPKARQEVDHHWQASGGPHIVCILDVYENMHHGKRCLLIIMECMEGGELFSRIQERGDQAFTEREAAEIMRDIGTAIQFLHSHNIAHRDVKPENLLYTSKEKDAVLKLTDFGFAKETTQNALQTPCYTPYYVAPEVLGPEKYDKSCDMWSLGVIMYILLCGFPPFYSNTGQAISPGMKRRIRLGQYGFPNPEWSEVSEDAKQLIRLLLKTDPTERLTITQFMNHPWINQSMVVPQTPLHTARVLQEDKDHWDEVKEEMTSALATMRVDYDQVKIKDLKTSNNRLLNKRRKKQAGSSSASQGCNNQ
EPHA3 (human), sequence (P29320 whole entry, looked up): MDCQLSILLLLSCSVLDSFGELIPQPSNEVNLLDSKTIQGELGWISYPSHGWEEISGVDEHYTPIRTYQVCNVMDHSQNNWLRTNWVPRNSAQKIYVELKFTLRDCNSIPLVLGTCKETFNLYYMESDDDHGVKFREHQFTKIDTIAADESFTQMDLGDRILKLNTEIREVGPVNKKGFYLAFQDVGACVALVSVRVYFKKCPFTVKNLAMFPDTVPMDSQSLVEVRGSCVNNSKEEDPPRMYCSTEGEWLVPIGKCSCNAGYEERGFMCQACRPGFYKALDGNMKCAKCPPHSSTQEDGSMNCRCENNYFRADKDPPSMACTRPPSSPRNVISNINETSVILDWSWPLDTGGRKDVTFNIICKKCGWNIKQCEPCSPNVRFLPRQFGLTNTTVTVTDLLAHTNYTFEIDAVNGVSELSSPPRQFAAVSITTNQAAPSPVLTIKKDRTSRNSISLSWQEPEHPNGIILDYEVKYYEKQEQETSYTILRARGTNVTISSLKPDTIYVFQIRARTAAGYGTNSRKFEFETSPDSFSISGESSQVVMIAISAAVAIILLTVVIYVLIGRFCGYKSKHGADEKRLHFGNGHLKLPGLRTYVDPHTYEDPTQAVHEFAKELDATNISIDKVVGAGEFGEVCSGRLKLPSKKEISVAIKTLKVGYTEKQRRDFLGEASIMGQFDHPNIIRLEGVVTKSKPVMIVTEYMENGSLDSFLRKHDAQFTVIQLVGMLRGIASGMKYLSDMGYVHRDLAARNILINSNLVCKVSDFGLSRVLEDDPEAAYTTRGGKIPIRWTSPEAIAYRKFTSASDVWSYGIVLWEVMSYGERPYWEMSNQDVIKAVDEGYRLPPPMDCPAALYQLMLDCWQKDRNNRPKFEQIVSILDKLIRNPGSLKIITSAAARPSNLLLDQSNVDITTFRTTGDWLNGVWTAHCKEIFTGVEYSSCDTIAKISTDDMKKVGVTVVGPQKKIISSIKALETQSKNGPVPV
TXK (human), sequence (P42681 whole entry, looked up): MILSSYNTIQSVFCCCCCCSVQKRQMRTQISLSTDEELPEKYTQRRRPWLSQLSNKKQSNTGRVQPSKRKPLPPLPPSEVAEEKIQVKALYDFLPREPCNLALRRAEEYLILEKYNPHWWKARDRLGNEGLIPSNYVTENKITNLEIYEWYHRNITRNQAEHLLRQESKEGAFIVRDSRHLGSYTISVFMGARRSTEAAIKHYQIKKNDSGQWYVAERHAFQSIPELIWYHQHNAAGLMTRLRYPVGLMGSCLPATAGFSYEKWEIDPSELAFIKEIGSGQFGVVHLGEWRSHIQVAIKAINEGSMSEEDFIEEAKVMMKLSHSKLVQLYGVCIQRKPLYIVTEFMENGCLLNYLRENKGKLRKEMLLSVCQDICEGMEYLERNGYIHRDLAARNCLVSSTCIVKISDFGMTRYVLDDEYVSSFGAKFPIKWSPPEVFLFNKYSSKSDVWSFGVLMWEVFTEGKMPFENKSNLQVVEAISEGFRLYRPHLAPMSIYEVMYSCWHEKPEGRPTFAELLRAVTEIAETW
EPHA6 (human), sequence (Q9UF33 whole entry, looked up): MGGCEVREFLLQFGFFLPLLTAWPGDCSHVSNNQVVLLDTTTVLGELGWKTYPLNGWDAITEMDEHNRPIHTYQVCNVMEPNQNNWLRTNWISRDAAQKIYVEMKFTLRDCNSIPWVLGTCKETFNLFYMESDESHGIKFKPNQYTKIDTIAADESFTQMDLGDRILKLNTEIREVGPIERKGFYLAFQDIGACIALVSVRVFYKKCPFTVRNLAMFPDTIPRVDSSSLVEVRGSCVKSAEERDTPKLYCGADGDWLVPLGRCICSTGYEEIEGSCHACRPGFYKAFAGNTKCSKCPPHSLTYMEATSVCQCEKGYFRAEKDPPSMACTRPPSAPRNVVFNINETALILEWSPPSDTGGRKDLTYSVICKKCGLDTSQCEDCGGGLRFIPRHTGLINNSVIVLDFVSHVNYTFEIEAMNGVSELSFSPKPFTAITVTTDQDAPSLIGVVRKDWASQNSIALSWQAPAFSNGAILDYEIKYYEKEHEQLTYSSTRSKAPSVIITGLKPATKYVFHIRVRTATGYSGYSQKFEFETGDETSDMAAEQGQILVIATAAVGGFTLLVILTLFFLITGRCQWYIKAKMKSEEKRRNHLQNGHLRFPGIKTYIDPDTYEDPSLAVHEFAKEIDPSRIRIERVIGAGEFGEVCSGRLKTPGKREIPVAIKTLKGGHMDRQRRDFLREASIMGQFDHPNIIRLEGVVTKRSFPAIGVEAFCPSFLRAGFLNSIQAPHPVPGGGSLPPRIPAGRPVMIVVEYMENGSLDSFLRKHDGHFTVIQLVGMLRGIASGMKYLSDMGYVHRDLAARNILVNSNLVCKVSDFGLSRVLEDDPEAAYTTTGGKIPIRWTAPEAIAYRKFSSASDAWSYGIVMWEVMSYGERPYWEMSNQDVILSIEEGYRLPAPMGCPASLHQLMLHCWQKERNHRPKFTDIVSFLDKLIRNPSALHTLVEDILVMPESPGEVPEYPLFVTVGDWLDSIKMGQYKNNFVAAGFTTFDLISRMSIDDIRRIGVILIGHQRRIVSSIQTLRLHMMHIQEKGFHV
FLT3 (human), sequence (P36888 whole entry, looked up): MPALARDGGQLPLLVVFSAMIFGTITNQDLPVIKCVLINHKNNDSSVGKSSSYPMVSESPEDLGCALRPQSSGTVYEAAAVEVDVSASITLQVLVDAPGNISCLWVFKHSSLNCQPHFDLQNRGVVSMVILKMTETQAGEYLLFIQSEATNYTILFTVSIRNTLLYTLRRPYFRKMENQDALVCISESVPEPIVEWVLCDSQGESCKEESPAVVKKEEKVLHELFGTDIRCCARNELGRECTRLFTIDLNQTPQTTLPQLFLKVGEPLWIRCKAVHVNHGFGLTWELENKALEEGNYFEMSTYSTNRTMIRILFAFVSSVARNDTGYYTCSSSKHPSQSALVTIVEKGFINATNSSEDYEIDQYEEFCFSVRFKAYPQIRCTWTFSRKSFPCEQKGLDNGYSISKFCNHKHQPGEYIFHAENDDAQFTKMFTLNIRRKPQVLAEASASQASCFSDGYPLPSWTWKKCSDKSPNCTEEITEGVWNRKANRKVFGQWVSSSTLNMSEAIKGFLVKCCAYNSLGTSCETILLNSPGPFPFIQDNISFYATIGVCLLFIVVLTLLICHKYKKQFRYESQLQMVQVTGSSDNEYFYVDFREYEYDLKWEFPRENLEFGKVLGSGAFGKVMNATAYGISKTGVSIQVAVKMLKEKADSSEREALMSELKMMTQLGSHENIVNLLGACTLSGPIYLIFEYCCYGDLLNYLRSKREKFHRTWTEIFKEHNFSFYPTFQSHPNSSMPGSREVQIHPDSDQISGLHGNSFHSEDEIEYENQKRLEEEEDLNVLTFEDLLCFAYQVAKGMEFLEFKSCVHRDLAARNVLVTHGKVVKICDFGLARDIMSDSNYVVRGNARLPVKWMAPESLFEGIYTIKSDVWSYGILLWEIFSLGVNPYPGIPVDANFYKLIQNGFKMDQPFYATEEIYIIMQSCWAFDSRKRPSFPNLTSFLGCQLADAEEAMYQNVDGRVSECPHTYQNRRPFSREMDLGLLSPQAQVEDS
PHKG1 (human), sequence (Q16816 whole entry, looked up): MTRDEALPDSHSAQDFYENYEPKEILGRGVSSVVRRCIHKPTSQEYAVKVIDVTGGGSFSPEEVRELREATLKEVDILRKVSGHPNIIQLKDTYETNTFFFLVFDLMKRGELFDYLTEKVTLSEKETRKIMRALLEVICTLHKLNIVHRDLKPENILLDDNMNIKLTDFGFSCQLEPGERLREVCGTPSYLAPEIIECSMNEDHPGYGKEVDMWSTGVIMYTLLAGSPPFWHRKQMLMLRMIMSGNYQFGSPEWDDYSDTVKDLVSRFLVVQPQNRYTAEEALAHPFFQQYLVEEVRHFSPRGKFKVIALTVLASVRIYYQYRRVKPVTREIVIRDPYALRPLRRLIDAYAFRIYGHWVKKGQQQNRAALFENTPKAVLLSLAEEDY

## CC[C@H](C)n1cc(C)c2c(C(=O)NCc3c(C)cc(C)[nH]c3=O)cc(-c3ccc(N4CCNCC4)nc3)cc21
AKT2 (human)
  residual activity: 93.5%
CAMKK2 (human)
  residual activity: 98%
CDK5 CDK5R1 p35 (human)
  residual activity: 103%
CDK9 CCNT1 (human)
  residual activity: 98%
EGFR (human)
  residual activity: 96.5%
EPHA3 (human)
  residual activity: 98%
EPHA6 (human)
  residual activity: 90%
FLT1 (human)
  residual activity: 97.5%
FLT3 (human)
  residual activity: 87.5%
FLT4 (human)
  residual activity: 82.5%
GSG2 (human)
  residual activity: 98%
ITK (human)
  residual activity: 89.5%
JAK3 JH1 JH2 (human)
  residual activity: 95.5%
KDR (human)
  residual activity: 104%
LTK (human)
  residual activity: 102%
MAP3K9 (human)
  residual activity: 92.5%
MAP4K5 (human)
  residual activity: 102%
MAPK10 (human)
  residual activity: 105%
MAPK11 (human)
  residual activity: 102%
MAPKAPK3 (human)
  residual activity: 100%
MET (human)
  residual activity: 128%
MINK1 (human)
  residual activity: 106%
MKNK2 (human)
  residual activity: 98%
MST4 (human)
  residual activity: 98%
NEK4 (human)
  residual activity: 95.5%
NTRK1 (human)
  residual activity: 106%
PAK3 (human)
  residual activity: 93.5%
PAK6 (human)
  residual activity: 102%
PBK (human)
  residual activity: 94%
PDGFRA (human)
  residual activity: 99.5%
PHKG1 (human)
  residual activity: 98%
PRKCD (human)
  residual activity: 102%
PRKCZ (human)
  residual activity: 99.5%
PRKD2 (human)
  residual activity: 98%
PRKG2 (human)
  residual activity: 97%
ROS1 (human)
  residual activity: 110%
RPS6KA2 KD1 KD2 (human)
  residual activity: 92%
SRC (human)
  residual activity: 83.5%
STK25 (human)
  residual activity: 93%
STK39 (human)
  residual activity: 95.5%
TAOK3 (human)
  residual activity: 101%
TSSK2 (human)
  residual activity: 93.5%
TXK (human)
  residual activity: 85.5%
TYK2 JH1 JH2 (human)
  residual activity: 91.5%
